Data from patent US20230398130A1, “METHODS AND COMPOSITIONS FOR DIFFERENTIATING STEM CELLS” (Massachusetts Institute of Technology, priority 2020, published 2023).

Key:
ISC-enriched organoids [1] = experiment: Primary screen, 384-well 2.5-D organoid differentiation (ENR+CD, 6 days, Target Selective Inhibitor Library, vs whole-plate median): ATP (CellTiter-Glo 3D, CTG); details: for Dose.FC.CTG: FC vs plate median; for SSMD.CTG: strictly standardized mean difference
ISC-enriched organoids [2] = experiment: Primary screen, 384-well 2.5-D organoid differentiation (ENR+CD, 6 days): basal lysozyme secretion (LYZ.NS); assay type: cell-based, murine; details: for Dose.FC.LYZ.NS: FC vs plate median; for SSMD.LYZ.NS: strictly standardized mean difference
Excerpt: (§1) High-throughput screening.

ISC-enriched organoids [3] = experiment: Primary screen, 384-well 2.5-D organoid differentiation (ENR+CD, 6 days): carbachol-induced lysozyme secretion (LYZ.S); assay type: cell-based, murine; details: primary screen; for Dose.FC.LYZ.S: FC vs plate median; for Z.LYZ.S: standard z score; for SSMD.LYZ.S: strictly standardized mean difference
Excerpt: as §1

[4] = Dose 0.08 uM, primary screen, standard z score
[5] = Dose 0.40 uM, primary screen, standard z score
[6] = Dose 2.00 uM, primary screen, standard z score
[7] = Dose 10.00 uM, primary screen, standard z score
[8] = primary screen, 1st of the 4 dose lines of the treatment (dose not given)
[9] = primary screen, 2nd of the 4 dose lines of the treatment (dose not given)
[10] = primary screen, 3rd of the 4 dose lines of the treatment (dose not given)
[11] = primary screen, 4th of the 4 dose lines of the treatment (dose not given)
[12] = 1st of the 4 dose lines of the treatment (dose not given)
[13] = 2nd of the 4 dose lines of the treatment (dose not given)
[14] = 3rd of the 4 dose lines of the treatment (dose not given)
[15] = 4th of the 4 dose lines of the treatment (dose not given)
[16] = primary screen, dose 0.08 uM, ENR+CD 6 days
[17] = primary screen, dose 0.08 uM, standard z score of FC
[18] = primary screen, dose 0.40 uM, ENR+CD 6 days
[19] = primary screen, dose 0.40 uM, standard z score of FC
[20] = primary screen, dose 2.00 uM, ENR+CD 6 days
[21] = primary screen, dose 2.00 uM, standard z score of FC
[22] = primary screen, dose 10.00 uM, ENR+CD 6 days
[23] = primary screen, dose 10.00 uM, standard z score of FC
[24] = Dose 0.08 uM, standard z score of FC
[25] = Dose 0.40 uM, standard z score of FC
[26] = Dose 2.00 uM, standard z score of FC
[27] = Dose 10.00 uM, standard z score of FC

COC(=O)CCSCc1ccc(-c2onc(C)c2NC(=O)OC(C)c2ccccc2Cl)cc1 (stereo not shown) [Ki16198]
Dose.FC.CTG (ISC-enriched organoids [1]; Dose 0.08 uM, primary screen): −0.011 log 2 fold change | Z.CTG (ISC-enriched organoids [1]; [4]): −0.026 | Dose.FC.CTG (ISC-enriched organoids [1]; Dose 0.40 uM, primary screen): −0.108 log 2 fold change | Z.CTG (ISC-enriched organoids [1]; [5]): −0.258 | Dose.FC.CTG (ISC-enriched organoids [1]; Dose 2.00 uM, primary screen): −0.033 log 2 fold change | Z.CTG (ISC-enriched organoids [1]; [6]): −0.078 | Dose.FC.CTG (ISC-enriched organoids [1]; Dose 10.00 uM, primary screen): 0.022 log 2 fold change | Z.CTG (ISC-enriched organoids [1]; [7]): 0.052 | SSMD.CTG (ISC-enriched organoids [1]; [8]): −0.028 | SSMD.CTG (ISC-enriched organoids [1]; [9]): −0.359 | SSMD.CTG (ISC-enriched organoids [1]; [10]): −0.118 | SSMD.CTG (ISC-enriched organoids [1]; [11]): 0.073 | Dose.FC.LYZ.NS (ISC-enriched organoids [2]; Dose 0.08 uM, primary screen): 0.005 log 2 fold change | Z.LYZ.NS (ISC-enriched organoids [2]; [4]): 0.044 | Dose.FC.LYZ.NS (ISC-enriched organoids [2]; Dose 0.40 uM, primary screen): −0.009 log 2 fold change | Z.LYZ.NS (ISC-enriched organoids [2]; [5]): −0.076 | Dose.FC.LYZ.NS (ISC-enriched organoids [2]; Dose 2.00 uM, primary screen): 0.060 log 2 fold change | Z.LYZ.NS (ISC-enriched organoids [2]; [6]): 0.519 | Dose.FC.LYZ.NS (ISC-enriched organoids [2]; Dose 10.00 uM, primary screen): −0.103 log 2 fold change | Z.LYZ.NS (ISC-enriched organoids [2]; [7]): −0.899 | SSMD.LYZ.NS (ISC-enriched organoids [2]; [8]): 0.052 | SSMD.LYZ.NS (ISC-enriched organoids [2]; [9]): −0.083 | SSMD.LYZ.NS (ISC-enriched organoids [2]; [10]): 0.211 | SSMD.LYZ.NS (ISC-enriched organoids [2]; [11]): −0.914 | Dose.FC.LYZ.S (ISC-enriched organoids [3]; Dose 0.08 uM): 0.027 log 2 fold change | Dose.FC.LYZ.S (ISC-enriched organoids [3]; Dose 0.40 uM): 0.031 log 2 fold change | Dose.FC.LYZ.S (ISC-enriched organoids [3]; Dose 2.00 uM): −0.015 log 2 fold change | Dose.FC.LYZ.S (ISC-enriched organoids [3]; Dose 10.00 uM): −0.037 log 2 fold change | Z.LYZ.S (ISC-enriched organoids [3]; [12]): 0.176 | Z.LYZ.S (ISC-enriched organoids [3]; [13]): 0.204 | Z.LYZ.S (ISC-enriched organoids [3]; [14]): −0.095 | Z.LYZ.S (ISC-enriched organoids [3]; [15]): −0.239 | SSMD.LYZ.S (ISC-enriched organoids [3]; [12]): 0.136 | SSMD.LYZ.S (ISC-enriched organoids [3]; [13]): 0.231 | SSMD.LYZ.S (ISC-enriched organoids [3]; [14]): −0.105 | SSMD.LYZ.S (ISC-enriched organoids [3]; [15]): −0.262

CC(=O)Nc1cccc2c1c(Sc1ccc(Cl)cc1)c(C)n2CC(=O)O [AZD1981]
Dose.FC.CTG (ISC-enriched organoids [1]; [16]): 0.400 log 2 fold change | Z.CTG (ISC-enriched organoids [1]; [17]): 0.955 | Dose.FC.CTG (ISC-enriched organoids [1]; [18]): 0.285 log 2 fold change | Z.CTG (ISC-enriched organoids [1]; [19]): 0.681 | Dose.FC.CTG (ISC-enriched organoids [1]; [20]): 0.099 log 2 fold change | Z.CTG (ISC-enriched organoids [1]; [21]): 0.236 | Dose.FC.CTG (ISC-enriched organoids [1]; [22]): 0.238 log 2 fold change | Z.CTG (ISC-enriched organoids [1]; [23]): 0.570 | Dose.FC.LYZ.NS (ISC-enriched organoids [2]; [16]): 0.009 log 2 fold change | Z.LYZ.NS (ISC-enriched organoids [2]; [17]): 0.081 | Dose.FC.LYZ.NS (ISC-enriched organoids [2]; [18]): 0.001 log 2 fold change | Z.LYZ.NS (ISC-enriched organoids [2]; [19]): 0.008 | Dose.FC.LYZ.NS (ISC-enriched organoids [2]; [20]): 0.001 log 2 fold change | Z.LYZ.NS (ISC-enriched organoids [2]; [21]): 0.011 | Dose.FC.LYZ.NS (ISC-enriched organoids [2]; [22]): 0.024 log 2 fold change | Z.LYZ.NS (ISC-enriched organoids [2]; [23]): 0.205 | Dose.FC.LYZ.S (ISC-enriched organoids [3]; dose 0.08 uM, ENR+CD 6 days): 0.023 log 2 fold change | Dose.FC.LYZ.S (ISC-enriched organoids [3]; dose 0.40 uM, ENR+CD 6 days): 0.191 log 2 fold change | Dose.FC.LYZ.S (ISC-enriched organoids [3]; dose 2.00 uM, ENR+CD 6 days): 0.014 log 2 fold change | Dose.FC.LYZ.S (ISC-enriched organoids [3]; dose 10.00 uM, ENR+CD 6 days): 0.070 log 2 fold change

O=C1C(=O)N(Cc2ccc(Cl)c(Cl)c2)c2ccccc21 [Apoptosis Activator 2]
Dose.FC.CTG (ISC-enriched organoids [1]; [16]): 0.304 log 2 fold change | Z.CTG (ISC-enriched organoids [1]; [17]): 0.725 | Dose.FC.CTG (ISC-enriched organoids [1]; [18]): 0.262 log 2 fold change | Z.CTG (ISC-enriched organoids [1]; [19]): 0.626 | Dose.FC.CTG (ISC-enriched organoids [1]; [20]): 0.082 log 2 fold change | Z.CTG (ISC-enriched organoids [1]; [21]): 0.195 | Dose.FC.CTG (ISC-enriched organoids [1]; [22]): −0.158 log 2 fold change | Z.CTG (ISC-enriched organoids [1]; [23]): −0.378 | Dose.FC.LYZ.NS (ISC-enriched organoids [2]; [16]): 0.149 log 2 fold change | Z.LYZ.NS (ISC-enriched organoids [2]; [17]): 1.302 | Dose.FC.LYZ.NS (ISC-enriched organoids [2]; [18]): 0.033 log 2 fold change | Z.LYZ.NS (ISC-enriched organoids [2]; [19]): 0.290 | Dose.FC.LYZ.NS (ISC-enriched organoids [2]; [20]): −0.006 log 2 fold change | Z.LYZ.NS (ISC-enriched organoids [2]; [21]): −0.049 | Dose.FC.LYZ.NS (ISC-enriched organoids [2]; [22]): −0.199 log 2 fold change | Z.LYZ.NS (ISC-enriched organoids [2]; [23]): −1.734 | Dose.FC.LYZ.S (ISC-enriched organoids [3]; dose 0.08 uM, ENR+CD 6 days): 0.132 log 2 fold change | Dose.FC.LYZ.S (ISC-enriched organoids [3]; dose 0.40 uM, ENR+CD 6 days): 0.073 log 2 fold change | Dose.FC.LYZ.S (ISC-enriched organoids [3]; dose 2.00 uM, ENR+CD 6 days): −0.009 log 2 fold change | Dose.FC.LYZ.S (ISC-enriched organoids [3]; dose 10.00 uM, ENR+CD 6 days): −0.252 log 2 fold change

O=C(NCCN1CCOCC1)c1ccc(Cl)cc1 [Moclobemide (Ro 111163)]
Dose.FC.CTG (ISC-enriched organoids [1]; Dose 0.08 uM, primary screen): 0.146 log 2 fold change | Z.CTG (ISC-enriched organoids [1]; [24]): 0.348 | Dose.FC.CTG (ISC-enriched organoids [1]; Dose 0.40 uM, primary screen): 0.106 log 2 fold change | Z.CTG (ISC-enriched organoids [1]; [25]): 0.252 | Dose.FC.CTG (ISC-enriched organoids [1]; Dose 2.00 uM, primary screen): 0.116 log 2 fold change | Z.CTG (ISC-enriched organoids [1]; [26]): 0.276 | Dose.FC.CTG (ISC-enriched organoids [1]; Dose 10.00 uM, primary screen): 0.042 log 2 fold change | Z.CTG (ISC-enriched organoids [1]; [27]): 0.100 | SSMD.CTG (ISC-enriched organoids [1]; [8]): 0.257 | SSMD.CTG (ISC-enriched organoids [1]; [9]): 0.148 | SSMD.CTG (ISC-enriched organoids [1]; [10]): 0.227 | SSMD.CTG (ISC-enriched organoids [1]; [11]): 0.115 | Dose.FC.LYZ.NS (ISC-enriched organoids [2]; Dose 0.08 uM, primary screen): 0.075 log 2 fold change | Z.LYZ.NS (ISC-enriched organoids [2]; [24]): 0.654 | Dose.FC.LYZ.NS (ISC-enriched organoids [2]; Dose 0.40 uM, primary screen): 0.121 log 2 fold change | Z.LYZ.NS (ISC-enriched organoids [2]; [25]): 1.055 | Dose.FC.LYZ.NS (ISC-enriched organoids [2]; Dose 2.00 uM, primary screen): 0.001 log 2 fold change | Z.LYZ.NS (ISC-enriched organoids [2]; [26]): 0.011 | Dose.FC.LYZ.NS (ISC-enriched organoids [2]; Dose 10.00 uM, primary screen): −0.028 log 2 fold change | Z.LYZ.NS (ISC-enriched organoids [2]; [27]): −0.243 | SSMD.LYZ.NS (ISC-enriched organoids [2]; [8]): 0.302 | SSMD.LYZ.NS (ISC-enriched organoids [2]; [9]): 0.415 | SSMD.LYZ.NS (ISC-enriched organoids [2]; [10]): 0.007 | SSMD.LYZ.NS (ISC-enriched organoids [2]; [11]): −0.219 | Dose.FC.LYZ.S (ISC-enriched organoids [3]; Dose 0.08 uM): 0.147 log 2 fold change | Dose.FC.LYZ.S (ISC-enriched organoids [3]; Dose 0.40 uM): 0.094 log 2 fold change | Dose.FC.LYZ.S (ISC-enriched organoids [3]; Dose 2.00 uM): 0.012 log 2 fold change | Dose.FC.LYZ.S (ISC-enriched organoids [3]; Dose 10.00 uM): 0.019 log 2 fold change | Z.LYZ.S (ISC-enriched organoids [3]; [12]): 0.953 | Z.LYZ.S (ISC-enriched organoids [3]; [13]): 0.607 | Z.LYZ.S (ISC-enriched organoids [3]; [14]): 0.078 | Z.LYZ.S (ISC-enriched organoids [3]; [15]): 0.123 | SSMD.LYZ.S (ISC-enriched organoids [3]; [12]): 0.495 | SSMD.LYZ.S (ISC-enriched organoids [3]; [13]): 0.348 | SSMD.LYZ.S (ISC-enriched organoids [3]; [14]): 0.056 | SSMD.LYZ.S (ISC-enriched organoids [3]; [15]): 0.135
